Reference: patent publication US20240336567A1, “PESTICIDAL AND HERBICIDAL COMPOUNDS AND METHODS OF USE THEREOF” (AG Plenus Ltd, priority 2021, published 2024)

Experiments:
Arabidopsis thaliana [1] = test: HTPS - Dicot - Pre-emergence; type: in vivo; conditions: N/A: not active; for Emax: read-out: HTPS - Dicot - Pre Max effect
Experimental: (§1) Arabidopsis thaliana seeds were sown in 96 well plates filled with irrigated Sweet sand (10%>clay) that is washed from salts and minerals using tap water. 5-10 seeds were sown in the center of each well. 7-8 days post sowing, at 2 true leaves stage, thinning out was performed to ensure that compound application is done on a single plant per well. The plates were placed in a controlled greenhouse in a random order inside a bath which allows flooding irrigation with tap water supplemented with a fertilizer. Applied compounds were dissolved into a final solution of 50% acetone, 49.9% DDW, 0.1% tween-20. A 96 well plate was used as a stock plate for preparing application solutions for 8 repeats. Each row contained different concentrations per chemical. Maximal concentration for application was 1.5 Kg/Ha and dilution factor is 2.5. Chemical application was performed one day after thinning out in a chemical hood. 5 μL applied on first two true leaves in each well using 12 channel pipettes. Data collection: RGB (red, green, blue) data for green area per well was documented using camera. Data is collected at a few time points during the experiment: one day after thinning and before chemical application, two-, six- or nine-days post application. During the last two documentations, visual phenotyping was performed. Data analysis: Given RGB results and visual phenotype scores, a student t-test conducted to compare between treatment and control performance for continuous data (RGB) and Fisher exact test to analyze the non-continuous data (phenotypic scores). Dose-Response curves are generated for each treatment to infer ED50 and max. inhibition parameters, using treatment's log concentration range as the […] variable and normalized green area. These experiments are conducted similarly except that either Arabidopsis thaliana or Eragrostis teff seeds were sowed (5-10 or 5-7, respectively), plant thinning out was not performed, compound dissolved into a final solution of 50% acetone, 49.9% DDW, compound application was done at 30 μL volume per well directly on sowed soil before plant emergence and data was collected 10 or 7 days after chemical application on dicot or monocot plants, respectively. Plate imaging performed at 11 and 18 DAA. RGB data for green area per well was documented and used to extract % inhibition. Dose-Response curves were built for each treatment to infer ED50, ED75 and ED90 parameters, using treatment's log concentration range as the independent variable and normalized green area as the dependent variable. Treatments were compared to controls performance given RGB results and using student's t-test (p-val≤0.05).

[2] = in vitro thermal shift (binding of compound to the target); conditions: thermal shift caused by binding of the compound to the (unnamed) target
Eragrostis teff = test: HTPS - Monocot - Pre-emergence; type: in vivo; conditions: N/A: not active; for Emax: read-out: HTPS - Monocot - Pre Max effect
Experimental: as §1

Arabidopsis thaliana [3] = test: HTPS (high throughput on soil) - Dicot - Post-emergence; type: in vivo; conditions: N/A: not active; for Emax: read-out: HTPS - Dicot - Post Max effect; for HTPS - Dicot - Post ED50: from normalized green area
Experimental: as §1, with “area.” for “area. These experiments are conducted similarly except that either Arabidopsis thaliana or Eragrostis teff seeds were sowed (5-10 or 5-7, respectively), plant thinning out was not performed, compound dissolved into a final solution of 50% acetone, 49.9% DDW, compound application was done at 30 μL volume per well directly on sowed soil before plant emergence and data was collected 10 or 7 days after chemical application on dicot or monocot plants, respectively.”

SETVI = test: In-planta LTP pre-emergence, visual phenotype; type: in vivo, Setaria viridis; conditions: Setaria viridis, 432 h, monocot, read-out: IG Inhibited growth (% effect)
Experimental: A basic panel of 8 weed species (Table 3) were sowed in 4×4×7 cm plastic pots containing inert sand (Sweet sand), intensively washed using osmosis water. Each specie was sowed in a separate pot. In each pot 10-15 seeds were sowed according to the specie viability. Sowing was performed one day before application. The plants were grown for 21 days in a controlled greenhouse (26±2° C. day 20±2° C. night). Hood irrigation (tap water+Shefer 5:3:8 8 mM) was given at a 50% water content by weight. Compounds were soluble in water (DDW), and commercial herbicide control was soluble in formulation B (Table 4). Application was conducted with an industrial sprayer (TeeJet 6502E nozzle) at a rate of 2 kg/ha and spray volume of […]. Pre-emergence advanced dose response experiment application was conducted at six rates between 1-0.0312 kg/ha and spray volume of […]. Percentage of emergence was evaluated at 15 DAA. Visual phenotyping was recorded using a scale of 0-6 (0: no visible effect, 6: maximum effect) at 18 DAA. All experiments included an untreated control, a solvent control and a positive control (commercial herbicide A.I.). Statistical analysis for visual phenotyping determined by a median value of ≥3.5 and Fisher test (pval≤0.05). Statistical analysis for plant emergence determined by % emergence ≥50 and T test (pval≤0.05), as well as Wilcox test (pval≤0.05).

in vitro Thermal Shift [2] [°C] | Compound | Emax (Arabidopsis thaliana [1]) [%] | Emax (Eragrostis teff) [%] | Emax (Arabidopsis thaliana [3]) [%] | HTPS - Dicot - Post ED50 (Arabidopsis thaliana [3]) [g/ha] | HTPS - Dicot - Pre ED50 (Arabidopsis thaliana [1]) [g/ha] | pest or weed control at 2000 g/ha (SETVI) [%] | HTPS - Monocot - Pre ED50 (Eragrostis teff) [g/ha]
9 | CCOC(=O)COC(=O)c1cccc(OCC(C)N)n1 (stereo not shown) [Compound 179] | – | – | 100 | 22 | – | – | –
10 | C#CCOC(=O)c1cccc(OCC(C)N)n1 (stereo not shown) [Compound 185] | – | – | 100 | 30 | – | – | –
15 | CCC(N)COc1cccc(C(=O)O)n1 (stereo not shown) [Compound 168] | – | – | 100 | 22 | – | – | –
15 | C[C@H](N)COc1cccc(C(=O)O)n1 [Compound 175] | 100 | – | 100 | 7 | 3.8 | – | –
12 | COC(=O)COC(=O)c1cccc(OCC(C)N)n1 (stereo not shown) [Compound 180] | – | – | 100 | 13 | – | – | –
6 | CCOC(=O)CCOC(=O)c1cccc(OCC(C)N)n1 (stereo not shown) [Compound 177] | – | – | 100 | 27 | – | – | –
15 | C[C@@H](N)COc1cccc(C(=O)O)n1 [Compound 174] | 100 | – | 100 | 44 | 3.8 | – | –
1 | CCOC(=O)CNC(=O)c1cccc(OCC(C)N)c1 (stereo not shown) [Compound 178] | – | – | 100 | 39 | – | – | –
14 | CC(N)COc1cccc(C(=O)OCC(=O)O)n1 (stereo not shown) [Compound 181] | – | – | 100 | 23 | – | – | –
8 | COC(=O)c1cccc(OCC(C)N)n1 (stereo not shown) [Compound 218] | – | – | 100 | 14 | – | – | –
5 | CCCCOC(=O)c1cccc(OCC(C)N)n1 (stereo not shown) [Compound 184] | – | – | 100 | 36 | – | – | –
2 | CCOC(=O)CNC(=O)c1cccc(OCC(C)N)n1 (stereo not shown) [Compound 176] | – | – | 100 | 85 | – | – | –
3 | CCOC(=O)c1cccc(OCC(C)N)n1 (stereo not shown) [Compound 219] | – | – | 100 | 48 | – | – | –
4 | Cc1ccc(OCCN)cc1C(=O)O [Compound 152] | – | – | – | – | – | – | –
16 | CC(N)COc1cc(Cl)c(F)c(C(=O)O)c1 (stereo not shown) [Compound 186] | – | – | 100 | 200 | – | – | –
5 | NCCSc1cccc(C(=O)O)c1 [Compound 151] | – | – | – | – | – | – | –
13 | C[C@H](N)COc1cccc(C(=O)O)c1 [Compound 155] | 100 | 100 | 100 | 56 | 60 | – | 170

The remaining lines, values behind:

Compound | in vitro Thermal Shift [2] [°C] | Emax (Arabidopsis thaliana [1]) [%] | Emax (Eragrostis teff) [%] | Emax (Arabidopsis thaliana [3]) [%] | HTPS - Dicot - Post ED50 (Arabidopsis thaliana [3]) [g/ha] | HTPS - Dicot - Pre ED50 (Arabidopsis thaliana [1]) [g/ha] | pest or weed control at 2000 g/ha (SETVI) [%] | HTPS - Monocot - Pre ED50 (Eragrostis teff) [g/ha]
CC(N)CSc1cccc(C(=O)O)c1 (stereo not shown) [Compound 140] | 5 | 0 | 33 | 15 | – | – | – | –
COC(=O)CCOC(=O)c1cccc(OCC(C)N)n1 (stereo not shown) [Compound 182] | – | – | – | 100 | 72 | – | – | –
CC(C)(N)COc1cccc(C(=O)O)c1 [Compound 103] | 8 | – | – | 100 | 157 | – | – | –
NC1(COc2cccc(C(=O)O)c2)CC1 [Compound 121] | 11 | – | – | 99 | 256 | – | – | –
CCOC(=O)c1cccc(OCC(C)N)c1 (stereo not shown) [Compound 150] | 6 | 100 | – | – | – | 150 | – | –
CC(N)COc1cccc(C(=O)OCCC(=O)O)n1 (stereo not shown) [Compound 183] | – | – | – | 100 | 17 | – | – | –
COC(=O)c1cccc(OCC(C)N)c1 (stereo not shown) [Compound 110] | 4 | 100 | – | 100 | 38 | 80 | 80 | –
CC(CN)Nc1cccc(C(=O)O)c1 (stereo not shown) [Compound 119] | 7 | 22 | 3 | 33 | – | – | – | –
CC(CN)Oc1ccc(F)c(C(=O)O)c1 (stereo not shown) [Compound 101] | 13 | 20 | 12 | 24 | – | – | – | –
CC(N)CNc1ccc(Cl)c(C(=O)O)c1 (stereo not shown) [Compound 139] | 9 | 100 | – | – | – | 256 | – | –
CC(N)COc1ccc(Cl)c(C(=O)O)c1 (stereo not shown) [Compound 107] | 14 | 100 | 45 | 100 | 400 | 127 | – | 660
NC1CCCC1Oc1cccc(C(=O)O)c1 (stereo not shown) [Compound 122] | 16 | – | 89 | 100 | 19 | – | – | –
NC1CCCC1Oc1cccc(C(=O)O)n1 (stereo not shown) [Compound 173] | – | – | – | 100 | 463 | – | – | –
NCCOc1cccc(C(=O)O)c1 [Compound 127] | 9 | 100 | 94 | 100 | 134 | 180 | – | –
NCCNc1ccc(Cl)c(C(=O)O)c1 [Compound 133] | 6 | 5 | 0 | 40 | – | – | – | –
